Measurements from publication PMC6273746, “Molecular Mechanism of the Flavonoid Natural Product Dryocrassin ABBA against Staphylococcus aureus Sortase A” (Molecules, 2016).

Legend:
Type in all cases: binding
[1] = target: T1, sortase A (SrtA), V168A-SrtA (Staphylococcus aureus, UniProt Q2FV99, V168A); assay: fluorescence quenching (KA); reduced inhibition versus WT in FRET assay at […]
T1 construct: SrtA△N59, recombinant, GST tag cleaved

[2] = target: T2, sortase A (SrtA), WT-SrtA (Staphylococcus aureus, UniProt Q2FV99); assay: fluorescence quenching (KA); also FRET inhibition of purified SrtA, IC50 […]
T2 construct: SrtA△N59, recombinant, GST tag cleaved

[3] = target: T3, sortase A (SrtA), V166A-SrtA (Staphylococcus aureus, UniProt Q2FV99, V166A); assay: fluorescence quenching (KA); reduced inhibition versus WT in FRET assay at […]
T3 construct: SrtA△N59, recombinant, GST tag cleaved

Structure (SMILES): CCCC(=O)c1c(O)c(CC2=C(O)C(C)(C)C(=O)C(C(C)=O)=C2O)c(O)c(Cc2c(O)c(CC3=C(O)C(C)(C)C(=O)C(C(C)=O)=C3O)c(O)c(C(=O)CCC)c2O)c1O [ABBA, dryocrassin ABBA]
- Kd [1]: 2790 nM
- Kd [2]: 2180 nM
- Kd [3]: 2300 nM
